The pEC50 is the negative decadic logarithm of the EC50, by convention in mol/L.

SMILES strings stand for the structures. pEC50: −log10 of the molar value.

The experiment concerns NQO1 specific enzyme activity in BEAS-2B cells (marker for NRF2 activation). Description: BEAS-2B NQO1 MTT Assay. Conditions: Homo sapiens, BEAS-2B, 48 h, NQO1 specific activity induction, 48 hours with compound. The experiment is classed as cell-based. The gist of the method:
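BEAS-2B cells were plated at 250,000 cells/mL and treated after overnight culture with compound for 48 h at 37° C, 5% CO2. NQO1 activity in crude lysates was read kinetically as MTT reduction at 570 nm over 30 min. pEC50 comes from ΔOD/min versus log concentration with a 3-parameter fit.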
Take `CCn1nnc2c(F)c([C@H](c3cc(CN4C[C@@H](C)Cc5ccc(C(F)(F)F)cc5S4(=O)=O)c(Cl)s3)C(C)(C)C(=O)O)ccc21` [Example 57, (R)-3-(5-Chloro-4-(((S)-4-methyl-1,1-dioxido-8-(trifluoromethyl)-4,5-dihydrobenzo[f][1,2]thiazepin-2(3H)-yl)methyl)thiophen-2-yl)-3-(1-ethyl-4-fluoro-1H-benzo[d][1,2,3]triazol-5-yl)-2,2-dimethylpropanoic Acid]: the pEC50 is above 9.00.

For `CC[C@@H]1CN(Cc2cc([C@H](CCc3cn(CC)nn3)C(C)(C)C(=O)O)sc2C)S(=O)(=O)c2cccnc2O1` [Example 58, (R)-3-(4-(((R)-4-Ethyl-1,1-dioxido-3,4-dihydro-2H-pyrido[2,3-b][1,4,5]oxathiazepin-2-yl)methyl)-5-methylthiophen-2-yl)-5-(1-ethyl-1H-1,2,3-triazol-4-yl)-2,2-dimethylpentanoic Acid], the pEC50 was 8.00 to 9.00. For the compound `CC[C@@H]1CN(Cc2cc([C@@H](CCc3cn(CC)nn3)C(C)(C)C(=O)O)sc2C)S(=O)(=O)c2cccnc2O1` [Example 59, (S)-3-(4-(((R)-4-Ethyl-1,1-dioxido-3,4-dihydro-2H-pyrido[2,3-b][1,4,5]oxathiazepin-2-yl)methyl)-5-methylthiophen-2-yl)-5-(1-ethyl-1H-1,2,3-triazol-4-yl)-2,2-dimethylpentanoic Acid], the negative logarithm of the EC50 (pEC50) is 8.00 to 9.00.

Turning to `CC[C@@H]1CN(Cc2cc([C@@H](c3ccc4c(nnn4CC)c3C)C(C)(C)C(=O)O)sc2C)Cc2ncccc2O1` [Example 60, (S)-3-(4-(((R)-2-Ethyl-2,3-dihydropyrido[2,3-f][1,4]oxazepin-4(5H)-yl)methyl)-5-methylthiophen-2-yl)-3-(1-ethyl-4-methyl-1H-benzo[d][1,2,3]triazol-5-yl)-2,2-dimethylpropanoic Acid], the pEC50 was 8.00 to 9.00.

As for `CCn1cc(CC[C@@H](c2cc(CN3C[C@@H](C)Cc4ncccc4S3(=O)=O)c(C)s2)C(C)(C)C(=O)O)nn1` [Example 61, (R)-5-(1-Ethyl-1H-1,2,3-triazol-4-yl)-2,2-dimethyl-3-(5-methyl-4-(((S)-4-methyl-1,1-dioxido-4,5-dihydropyrido[2,3-f][1,2]thiazepin-2(3H)-yl)methyl)thiophen-2-yl)pentanoic Acid], the pEC50 was 8.00 to 9.00. Regarding `CCn1cc(CC[C@H](c2cc(CN3C[C@@H](C)Cc4ncccc4S3(=O)=O)c(C)s2)C(C)(C)C(=O)O)nn1` [Example 62, (S)-5-(1-Ethyl-1H-1,2,3-triazol-4-yl)-2,2-dimethyl-3-(5-methyl-4-(((S)-4-methyl-1,1-dioxido-4,5-dihydropyrido[2,3-f][1,2]thiazepin-2(3H)-yl)methyl)thiophen-2-yl)pentanoic Acid], the negative-log EC50 (pEC50) is 8.00 to 9.00. With `CC[C@@H]1CN(Cc2cc([C@@H](CCc3cn(CC)nn3)C(C)(C)C(=O)O)sc2C)S(=O)(=O)c2ccccc2O1` [Example 63, (S)-3-(4-(((R)-4-Ethyl-1,1-dioxido-3,4-dihydro-2H-benzo[b][1,4,5]oxathiazepin-2-yl)methyl)-5-methylthiophen-2-yl)-5-(1-ethyl-1H-1,2,3-triazol-4-yl)-2,2-dimethylpentanoic Acid], the pEC50 is 8.00 to 9.00. With `CC[C@@H]1CN(Cc2cc([C@H](CCc3cn(CC)nn3)C(C)(C)C(=O)O)sc2C)S(=O)(=O)c2ccccc2O1` [Example 64, (R)-3-(4-(((R)-4-Ethyl-1,1-dioxido-3,4-dihydro-2H-benzo[b][1,4,5]oxathiazepin-2-yl)methyl)-5-methylthiophen-2-yl)-5-(1-ethyl-1H-1,2,3-triazol-4-yl)-2,2-dimethylpentanoic Acid], the pEC50 was above 9.00.

The values above are taken from patent US11117905B2, “Bisaryl heterocycles as NRF2 activators” (GLAXOSMITHKLINE INTELLECTUAL PROPERTY DEVELOPMENT LIMITED, priority 2016, dated 2021).
